Reference: BindingDB's records for doi:10.1038/nchembio.421 (Novartis Institutes for BioMedical Research, 2010)

molecular target: T1, Farnesyl pyrophosphate synthase (Homo sapiens, UniProt P14324); test: Biophysical assay; conditions: pH 7.4; 23 °C
T1 sequence (P14324 whole entry): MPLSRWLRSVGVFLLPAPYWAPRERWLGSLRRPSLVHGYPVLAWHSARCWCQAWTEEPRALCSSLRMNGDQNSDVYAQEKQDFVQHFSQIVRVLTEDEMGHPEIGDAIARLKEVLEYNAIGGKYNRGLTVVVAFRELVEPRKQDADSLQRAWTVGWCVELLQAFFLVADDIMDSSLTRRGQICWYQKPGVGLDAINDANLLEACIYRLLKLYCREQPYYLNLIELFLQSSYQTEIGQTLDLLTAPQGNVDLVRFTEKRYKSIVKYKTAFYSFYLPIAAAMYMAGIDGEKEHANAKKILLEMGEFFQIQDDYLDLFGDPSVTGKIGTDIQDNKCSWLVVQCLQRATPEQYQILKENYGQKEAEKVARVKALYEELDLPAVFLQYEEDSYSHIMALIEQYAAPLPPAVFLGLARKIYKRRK
Excerpt: A biophysical assay using NMR spectroscopy to identify fragments with higher binding affinity to human recombinant FPPS.

| IC50 [µM] | SMILES |
| --- | --- |
| > 500 | Cc1c(CC(=O)O)sc2ccc(Cl)cc12 [CID68686] |
| 80 | CC(C(=O)O)c1cc2c(Cl)cccc2s1 (centres undefined) [2-(4-Chlorobenzo[b]thiophen-2-yl)propanoic acid, 5] |
| 12 | O=C(O)Cc1sc2ccccc2c1Cl [2-(3-Chlorobenzo[b]thiophen-2-yl)acetic acid, 6] |

| SMILES | IC50 [µM] |
| --- | --- |
| O=C(O)c1cc(Cn2c(C(=O)O)cc3ccc4ccccc4c32)on1 [5-((2-Carboxy-1H-benzo[g]indol-1-yl)methyl)isoxazole-3-carboxylic acid, 12] | 0.08 |
